Results taken from PMC5218480 (PLoS ONE, 2017).

Tested on: MV-4-11 cells
Test: Gene expression microarray analysis (Affymetrix PrimeView) and GSEA
Format: cell-based, human
Parameters: RFU PODN (11730768_x_at) / Fold change /veh PODN (11730768_x_at) / RFU LINC00158 (11744669_a_at) / Fold change /veh LINC00158 (11744669_a_at) / RFU DUSP10 (11751237_a_at) / Fold change /veh DUSP10 (11751237_a_at) / RFU ID3 (11757404_x_at) / Fold change /veh ID3 (11757404_x_at) / RFU PLEKHG5 (11737974_s_at) / Fold change /veh PLEKHG5 (11737974_s_at) / RFU LRRC4B (11730491_at) / Fold change /veh LRRC4B (11730491_at) / RFU GIMAP4 (11747438_a_at) / Fold change /veh GIMAP4 (11747438_a_at) / RFU KRT8 (11758183_x_at) / Fold change /veh KRT8 (11758183_x_at) / RFU CNN1 (11734310_a_at) / Fold change /veh CNN1 (11734310_a_at) / RFU VPS37D (11726825_at) / Fold change /veh VPS37D (11726825_at) / RFU C10orf10 (11716522_x_at) / Fold change /veh C10orf10 (11716522_x_at) / RFU KIR2DL2 /// KIR2DL4 /// KIR2DL5A /// KIR2DL5B /// KIR2DS1 /// KIR2DS2 /// KIR2DS3 /// KIR2DS4 /// KIR3DL3 /// KIR3DL3 /// KIR3DS1 (11738374_at) / Fold change /veh KIR2DL2 /// KIR2DL4 /// KIR2DL5A /// KIR2DL5B /// KIR2DS1 /// KIR2DS2 /// KIR2DS3 /// KIR2DS4 /// KIR3DL3 /// KIR3DL3 /// KIR3DS1 (11738374_at) / RFU C1QL1 (11718748_at) / Fold change /veh C1QL1 (11718748_at) / RFU TMPRSS4 (11747572_a_at) / Fold change /veh TMPRSS4 (11747572_a_at) / RFU HAMP (11756126_x_at) / Fold change /veh HAMP (11756126_x_at) / RFU RNFT2 (11725882_a_at) / Fold change /veh RNFT2 (11725882_a_at) / RFU NR4A2 (11747474_a_at) / Fold change /veh NR4A2 (11747474_a_at) / RFU ABCC12 (11746883_a_at) / Fold change /veh ABCC12 (11746883_a_at) / RFU TMEM136 (11760407_x_at) / Fold change /veh TMEM136 (11760407_x_at) / RFU CLDN22 /// WWC2 (11732394_at) / Fold change /veh CLDN22 /// WWC2 (11732394_at) / RFU HLA-DPB1 (11760878_x_at) / Fold change /veh HLA-DPB1 (11760878_x_at) / RFU SPINT1 (11716480_a_at) / Fold change /veh SPINT1 (11716480_a_at) / RFU GAP43 (11754022_s_at) / Fold change /veh GAP43 (11754022_s_at) / RFU A4GNT (11735810_at) / Fold change /veh A4GNT (11735810_at) / RFU PRB3 (11715151_x_at) / Fold change /veh PRB3 (11715151_x_at) / RFU TUBB4B (11761932_at) / Fold change /veh TUBB4B (11761932_at) / RFU CAPN14 (11732068_a_at) / Fold change /veh CAPN14 (11732068_a_at) / RFU TMCC2 (11721928_a_at) / Fold change /veh TMCC2 (11721928_a_at) / RFU IRGQ (11745062_a_at) / Fold change /veh IRGQ (11745062_a_at) / RFU FAM174B (11720279_a_at) / Fold change /veh FAM174B (11720279_a_at) / RFU TMPRSS4 (11748680_a_at) / Fold change /veh TMPRSS4 (11748680_a_at) / RFU FAM212B (11763350_a_at) / Fold change /veh FAM212B (11763350_a_at) / RFU PLEKHG5 (11743358_a_at) / Fold change /veh PLEKHG5 (11743358_a_at) / RFU ZSCAN30 (11745921_a_at) / Fold change /veh ZSCAN30 (11745921_a_at) / RFU CMKLR1 (11741424_a_at) / Fold change /veh CMKLR1 (11741424_a_at) / RFU LOC101060620 /// MAPK8IP1 (11723275_at) / Fold change /veh LOC101060620 /// MAPK8IP1 (11723275_at) / RFU SPTSSB (11747773_x_at) / Fold change /veh SPTSSB (11747773_x_at) / RFU PRSS12 (11739890_at) / Fold change /veh PRSS12 (11739890_at) / RFU BIN1 (11741810_x_at) / Fold change /veh BIN1 (11741810_x_at) / RFU WNT11 (11732464_a_at) / Fold change /veh WNT11 (11732464_a_at) / RFU C10orf10 (11716521_a_at) / Fold change /veh C10orf10 (11716521_a_at) / RFU C5orf56 (11738089_at) / Fold change /veh C5orf56 (11738089_at) / RFU CYB561 (11721691_x_at) / Fold change /veh CYB561 (11721691_x_at) / RFU ANKRD19P (11752326_a_at) / Fold change /veh ANKRD19P (11752326_a_at) / RFU OR2T12 /// OR2T33 /// OR2T8 (11738714_s_at) / Fold change /veh OR2T12 /// OR2T33 /// OR2T8 (11738714_s_at) / RFU VCAN (11748164_a_at) / Fold change /veh VCAN (11748164_a_at) / RFU JSRP1 (11732532_at) / Fold change /veh JSRP1 (11732532_at) / RFU KRTAP10-11 (11738290_x_at) / Fold change /veh KRTAP10-11 (11738290_x_at) / RFU MYO3A (11730013_a_at) / Fold change /veh MYO3A (11730013_a_at) / RFU EBF3 (11725865_a_at) / Fold change /veh EBF3 (11725865_a_at) / RFU CAMK2N1 (11719241_x_at) / Fold change /veh CAMK2N1 (11719241_x_at) / RFU C5orf56 (11738088_a_at) / Fold change /veh C5orf56 (11738088_a_at) / RFU OLFML3 (11715873_a_at) / Fold change /veh OLFML3 (11715873_a_at) / RFU LOC100653217 /// NTM (11731650_a_at) / Fold change /veh LOC100653217 /// NTM (11731650_a_at) / RFU MAPK11 (11762145_a_at) / Fold change /veh MAPK11 (11762145_a_at) / RFU FIZ1 (11724087_x_at) / Fold change /veh FIZ1 (11724087_x_at) / RFU OASL (11726364_x_at) / Fold change /veh OASL (11726364_x_at) / RFU SOX15 (11748057_x_at) / Fold change /veh SOX15 (11748057_x_at) / RFU CD79A (11719716_a_at) / Fold change /veh CD79A (11719716_a_at) / RFU HIST1H1D (11736915_at) / Fold change /veh HIST1H1D (11736915_at) / RFU CASKIN2 (11723855_a_at) / Fold change /veh CASKIN2 (11723855_a_at) / RFU LOC730098 (11760151_x_at) / Fold change /veh LOC730098 (11760151_x_at) / RFU OR4N2 (11742367_at) / Fold change /veh OR4N2 (11742367_at) / RFU PRRT2 (11749266_a_at) / Fold change /veh PRRT2 (11749266_a_at) / RFU SNX32 (11753110_a_at) / Fold change /veh SNX32 (11753110_a_at) / RFU CDHR5 (11726645_a_at) / Fold change /veh CDHR5 (11726645_a_at) / RFU RCAN1 (11760418_a_at) / Fold change /veh RCAN1 (11760418_a_at) / RFU FAM167A (11723789_a_at) / Fold change /veh FAM167A (11723789_a_at) / RFU FAM26E (11764081_at) / Fold change /veh FAM26E (11764081_at) / RFU ISYNA1 (11749810_s_at) / Fold change /veh ISYNA1 (11749810_s_at) / RFU ACY1 (11761880_at) / Fold change /veh ACY1 (11761880_at) / RFU 11764098_at / Fold change /veh 11764098_at / RFU SAMD14 (11745864_x_at) / Fold change /veh SAMD14 (11745864_x_at) / RFU NPB (11741838_a_at) / Fold change /veh NPB (11741838_a_at) / RFU TMPRSS6 (11731388_a_at) / Fold change /veh TMPRSS6 (11731388_a_at) / RFU KRTAP10-2 (11738614_at) / Fold change /veh KRTAP10-2 (11738614_at) / RFU ARHGAP8 /// PRR5-ARHGAP8 (11727945_x_at) / Fold change /veh ARHGAP8 /// PRR5-ARHGAP8 (11727945_x_at) / RFU KRTAP5-7 /// NADSYN1 (11734609_at) / Fold change /veh KRTAP5-7 /// NADSYN1 (11734609_at) / RFU RASL12 (11751679_a_at) / Fold change /veh RASL12 (11751679_a_at) / RFU CDKN2B (11736163_a_at) / Fold change /veh CDKN2B (11736163_a_at) / RFU PRF1 (11729649_at) / Fold change /veh PRF1 (11729649_at) / RFU, ZNF638 /// ZNF638-IT1 / Fold change vs veh, ZNF638 /// ZNF638-IT1 / RFU, PANK3 / Fold change vs veh, PANK3 / RFU, SH3YL1 / Fold change vs veh, SH3YL1 / RFU, ZEB2 / Fold change vs veh, ZEB2 / RFU, NRIP1 / Fold change vs veh, NRIP1 / RFU, PTTG1IP / Fold change vs veh, PTTG1IP / RFU, CAPN2 / Fold change vs veh, CAPN2 / RFU, MED14 / Fold change vs veh, MED14 / RFU, SNORA58 / Fold change vs veh, SNORA58 / RFU, C1orf63 / Fold change vs veh, C1orf63 / RFU, LRRFIP1 / Fold change vs veh, LRRFIP1 / RFU, NDUFAF7 / Fold change vs veh, NDUFAF7 / RFU, SLC12A2 / Fold change vs veh, SLC12A2 / RFU, IBTK / Fold change vs veh, IBTK / RFU, ESF1 / Fold change vs veh, ESF1 / Fold change vs veh, TMEM50B / RFU, TAOK1 / Fold change vs veh, TAOK1 / RFU, ACBD3 / Fold change vs veh, ACBD3 / RFU, TMA16 / Fold change vs veh, TMA16 / RFU, RWDD3 / Fold change vs veh, RWDD3 / RFU, BCAT1 / Fold change vs veh, BCAT1 / RFU, EDEM3 / Fold change vs veh, EDEM3 / RFU, TMEM33 / Fold change vs veh, TMEM33 / RFU, WDR75 / Fold change vs veh, WDR75 / RFU, AHCTF1 / Fold change vs veh, AHCTF1 / RFU, TFRC / Fold change vs veh, TFRC / RFU, ZDHHC17 / Fold change vs veh, ZDHHC17 / RFU, NOM1 / Fold change vs veh, NOM1 / RFU, ARL8B / Fold change vs veh, ARL8B / RFU, ZBTB11 / Fold change vs veh, ZBTB11 / RFU, TAMM41 / Fold change vs veh, TAMM41 / RFU, KIAA1704 /// LOC100996395 / Fold change vs veh, KIAA1704 /// LOC100996395 / RFU, ING1 / Fold change vs veh, ING1 / RFU, TRMT61B / Fold change vs veh, TRMT61B / RFU, FUBP3 / Fold change vs veh, FUBP3 / RFU, TP53 / Fold change vs veh, TP53 / RFU, TNKS2 / Fold change vs veh, TNKS2 / RFU, ZFP14 / Fold change vs veh, ZFP14 / RFU, ACTR2 / Fold change vs veh, ACTR2 / RFU, PPP3R1 / Fold change vs veh, PPP3R1 / RFU, PIK3R1 / Fold change vs veh, PIK3R1 / RFU, HNRNPA1 / Fold change vs veh, HNRNPA1 / RFU, RNF170 / Fold change vs veh, RNF170 / RFU, ZNF28 / Fold change vs veh, ZNF28 / RFU, RNGTT / Fold change vs veh, RNGTT / RFU, OGT / Fold change vs veh, OGT / RFU, BRD1 / Fold change vs veh, BRD1 / RFU, MARS / Fold change vs veh, MARS / RFU, ZNF655 / Fold change vs veh, ZNF655 / RFU, FAHD1 / Fold change vs veh, FAHD1 / RFU, BDP1 / Fold change vs veh, BDP1 / RFU, LRRCC1 / Fold change vs veh, LRRCC1 / RFU, ARID1A / Fold change vs veh, ARID1A / RFU, ZNF146 / Fold change vs veh, ZNF146 / RFU, ZNF330 / Fold change vs veh, ZNF330 / RFU, GPN3 / Fold change vs veh, GPN3 / RFU, C9orf123 / Fold change vs veh, C9orf123 / RFU, N4BP2L2 / Fold change vs veh, N4BP2L2 / RFU, ARFIP1 / Fold change vs veh, ARFIP1 / RFU, FAM179B / Fold change vs veh, FAM179B / RFU, BCL10 / Fold change vs veh, BCL10 / RFU, UHRF1BP1L / Fold change vs veh, UHRF1BP1L / RFU, BET1 / Fold change vs veh, BET1 / RFU, CNOT2 / Fold change vs veh, CNOT2 / RFU, ZNF268 / Fold change vs veh, ZNF268 / Fold change vs veh, ZNF507 / RFU, DGCR2 / Fold change vs veh, DGCR2 / RFU, WDSUB1 / Fold change vs veh, WDSUB1 / Fold change vs veh, HSP90B1 /// MIR3652 / RFU, ADSS / Fold change vs veh, ADSS / RFU, GK / Fold change vs veh, GK / RFU, ZNF148 / Fold change vs veh, ZNF148 / RFU, TAF9 / Fold change vs veh, TAF9 / RFU, SLC1A5 / Fold change vs veh, SLC1A5 / RFU, SLMO2 / Fold change vs veh, SLMO2 / RFU, ABCC4 / Fold change vs veh, ABCC4 / RFU, LOC101060439 /// RAP1B / Fold change vs veh, LOC101060439 /// RAP1B / RFU, RFX7 / Fold change vs veh, RFX7 / RFU, GTPBP10 / Fold change vs veh, GTPBP10 / RFU, CNEP1R1 / Fold change vs veh, CNEP1R1 / RFU, BIVM-ERCC5 /// ERCC5 / Fold change vs veh, BIVM-ERCC5 /// ERCC5 / RFU, ILF3 / Fold change vs veh, ILF3 / RFU 11762660_at / Fold change /veh 11762660_at / RFU VCAN (11757783_s_at) / Fold change /veh VCAN (11757783_s_at) / RFU DDX43 (11728927_at) / Fold change /veh DDX43 (11728927_at) / RFU KRT8 (11758188_x_at) / Fold change /veh KRT8 (11758188_x_at) / RFU NKD1 (11759106_at) / Fold change /veh NKD1 (11759106_at) / RFU SRD5A1 (11742802_a_at) / Fold change /veh SRD5A1 (11742802_a_at) / RFU TPSAB1 /// TPSB2 (11721975_s_at) / Fold change /veh TPSAB1 /// TPSB2 (11721975_s_at) / RFU GSTM3 (11746129_a_at) / Fold change /veh GSTM3 (11746129_a_at) / RFU IL23R (11737362_x_at) / Fold change /veh IL23R (11737362_x_at) / RFU TMEM51 (11727254_a_at) / Fold change /veh TMEM51 (11727254_a_at) / RFU PIWIL2 (11732686_x_at) / Fold change /veh PIWIL2 (11732686_x_at) / RFU ORM1 (11744905_x_at) / Fold change /veh ORM1 (11744905_x_at) / RFU CCDC152 (11743942_at) / Fold change /veh CCDC152 (11743942_at) / RFU ECM1 (11717891_a_at) / Fold change /veh ECM1 (11717891_a_at) / RFU IL23R (11748794_a_at) / Fold change /veh IL23R (11748794_a_at) / RFU TNFAIP8L3 (11732012_x_at) / Fold change /veh TNFAIP8L3 (11732012_x_at) / RFU MBOAT4 (11741988_at) / Fold change /veh MBOAT4 (11741988_at) / RFU 11764193_at / Fold change /veh 11764193_at / RFU TMEM53 (11763286_at) / Fold change /veh TMEM53 (11763286_at) / RFU MAGEB2 (11727129_at) / Fold change /veh MAGEB2 (11727129_at) / RFU TMEM200A (11744735_a_at) / Fold change /veh TMEM200A (11744735_a_at) / RFU CCDC152 (11751479_a_at) / Fold change /veh CCDC152 (11751479_a_at) / RFU FAM211A (11726209_a_at) / Fold change /veh FAM211A (11726209_a_at) / RFU RGS16 (11746705_a_at) / Fold change /veh RGS16 (11746705_a_at) / RFU VCAN (11755009_s_at) / Fold change /veh VCAN (11755009_s_at) / RFU RHOB (11743442_s_at) / Fold change /veh RHOB (11743442_s_at) / RFU RGS16 (11720943_a_at) / Fold change /veh RGS16 (11720943_a_at) / RFU RGS16 (11720944_at) / Fold change /veh RGS16 (11720944_at) / RFU, VPS4B / Fold change vs veh, VPS4B / RFU, CREB1 / Fold change vs veh, CREB1 / RFU, DNAJC13 / Fold change vs veh, DNAJC13 / RFU, GNAQ / Fold change vs veh, GNAQ / RFU, CDK5R1 / Fold change vs veh, CDK5R1 / RFU, ZRANB3 / Fold change vs veh, ZRANB3 / RFU, CUL4A / Fold change vs veh, CUL4A / RFU, CCNY / Fold change vs veh, CCNY / RFU, UFL1 / Fold change vs veh, UFL1 / RFU, COG3 / Fold change vs veh, COG3 / RFU, DIAPH2 / Fold change vs veh, DIAPH2 / RFU, SKA2 / Fold change vs veh, SKA2 / RFU, AFF3 / Fold change vs veh, AFF3 / RFU, LMF1 / Fold change vs veh, LMF1 / RFU, IPO11 / Fold change vs veh, IPO11 / RFU, DFFB / Fold change vs veh, DFFB / RFU, FOXP1 / Fold change vs veh, FOXP1 / RFU, CARD8 / Fold change vs veh, CARD8 / RFU, STRN3 / Fold change vs veh, STRN3 / RFU, ADK / Fold change vs veh, ADK / RFU, RASSF2 / Fold change vs veh, RASSF2 / RFU, WIPF1 / Fold change vs veh, WIPF1 / RFU, LARP1B / Fold change vs veh, LARP1B / RFU, RASA1 / Fold change vs veh, RASA1 / RFU, RB1 / Fold change vs veh, RB1 / RFU, PPFIA1 / Fold change vs veh, PPFIA1 / RFU, MAT2A / Fold change vs veh, MAT2A / RFU, CCT5 / Fold change vs veh, CCT5 / RFU, WDR92 / Fold change vs veh, WDR92 / RFU, CUX1 / Fold change vs veh, CUX1 / RFU, TTC7A / Fold change vs veh, TTC7A / RFU, TMEM135 / Fold change vs veh, TMEM135 / RFU, DEPTOR / Fold change vs veh, DEPTOR / RFU, CPM / Fold change vs veh, CPM / RFU, DNAJB6 / Fold change vs veh, DNAJB6 / RFU, CACNA2D3 / Fold change vs veh, CACNA2D3 / RFU, DTX4 / Fold change vs veh, DTX4 / RFU, TFCP2 / Fold change vs veh, TFCP2 / RFU, GMCL1 /// GMCL1P1 / Fold change vs veh, GMCL1 /// GMCL1P1 / RFU, AEBP2 / Fold change vs veh, AEBP2 / RFU, SNHG1 /// SNORD22 /// SNORD25 /// SNORD26 /// SNORD27 /// SNORD28 /// SNORD29 /// SNORD31 / Fold change vs veh, SNHG1 /// SNORD22 /// SNORD25 /// SNORD26 /// SNORD27 /// SNORD28 /// SNORD29 /// SNORD31 / Fold change (Aza/veh), C12orf56 (ProbeSet 11735607_a_at) / Fold change (ACY-1035/veh), C12orf56 (ProbeSet 11735607_a_at) / Fold change (Aza/veh), FGFR1OP (ProbeSet 11751329_s_at) / Fold change (ACY-1035/veh), FGFR1OP (ProbeSet 11751329_s_at) / Fold change (Aza/veh), VPS36 (ProbeSet 11739960_a_at) / Fold change (ACY-1035/veh), VPS36 (ProbeSet 11739960_a_at) / RFU SYPL1 (11715823_x_at) / Fold change /veh SYPL1 (11715823_x_at) / RFU IGFBP7 (11715501_s_at) / Fold change /veh IGFBP7 (11715501_s_at) / RFU REEP3 (11722064_at) / Fold change /veh REEP3 (11722064_at) / RFU IGLL1 (11728026_x_at) / Fold change /veh IGLL1 (11728026_x_at): dose or concentration left out as unconfirmed
Conditions: ProbeSet 11726703_a_at; LIST B

Which “RFU, BCL10” value does the source give for `Nc1ncn([C@@H]2O[C@H](CO)[C@@H](O)[C@H]2O)c(=O)n1` [azacitidine] here?
Its value is 71.45 RFU.
